Experimental data taken from patent publication US20140128385A1 (NOVARTIS AG, priority 2011, published 2014).
Structures can show the parent of a compound that is named as a salt.

Biological target: T1, BACE-2 (Homo sapiens, UniProt Q9Y5Z0)
T1 construct: Recombinant BACE-2 (extracellular domain, expressed in baculovirus and purified using standard methods); made in house
T1 sequence (Q9Y5Z0 63-473 limits assumed): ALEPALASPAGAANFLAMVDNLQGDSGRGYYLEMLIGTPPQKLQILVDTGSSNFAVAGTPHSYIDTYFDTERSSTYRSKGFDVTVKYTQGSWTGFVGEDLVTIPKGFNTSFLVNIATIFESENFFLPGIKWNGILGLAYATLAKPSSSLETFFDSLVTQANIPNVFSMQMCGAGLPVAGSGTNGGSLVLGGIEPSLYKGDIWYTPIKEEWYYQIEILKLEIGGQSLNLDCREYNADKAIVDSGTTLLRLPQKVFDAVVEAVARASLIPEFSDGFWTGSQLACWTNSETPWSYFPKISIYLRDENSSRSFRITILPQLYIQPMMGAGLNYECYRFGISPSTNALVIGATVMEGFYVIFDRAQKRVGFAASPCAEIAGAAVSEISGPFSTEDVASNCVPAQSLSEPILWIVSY
Assay: assay for inhibition of BACE-2
Type: biochemical

IC50	Compound
1250 nM	CCC1C(N)=NC(C)(c2cccc(NC(=O)c3ccc(Br)cn3)c2)C(=O)N1C (mixture of isomers) [Example 200, 5-Bromo-pyridine-2-carboxylic acid [3-(6-amino-5-ethyl-2,4-dimethyl-3-oxo-2,3,4,5-tetrahydro-pyrazin-2-yl)-phenyl]-amide]
41 nM	Cc1cc(C#N)cnc1C(=O)Nc1ccc(F)c(C2(C)COC(CF)(CF)C(N)=N2)c1 (racemic) [Example 251, 5-Cyano-3-methyl-pyridine-2-carboxylic acid [3-(5-amino-6,6-bis-fluoromethyl-3-methyl-3,6-dihydro-2H-[1,4]oxazin-3-yl)-4-fluoro-phenyl]-amide]
363 nM	CC1(c2cccc(NC(=O)c3ccc(Br)cn3)n2)COCC(N)=N1 (racemic) [Example 258, 5-Bromo-pyridine-2-carboxylic acid [6-(5-amino-3-methyl-3,6-dihydro-2H-[1,4]-oxazin-3-yl)-pyridin-2-yl]-amide]
6 nM	C[C@@]1(c2cccc(NC(=O)c3ccc(Br)cn3)c2)CO[C@@](C)(C(F)(F)F)C(N)=N1 (relative stereo) [Example 66, 5-Bromo-pyridine-2-carboxylic acid [3-((3R*,6R*)-5-amino-3,6-dimethyl-6-trifluoromethyl-3,6-dihydro-2H-[1,4]oxazin-3-yl)-phenyl]-amide hydrochloride]
355 nM	C[C@H]1OC[C@](c2cc(NC(=O)c3ccc(C#N)cn3)ccc2F)(C(F)F)N=C1N (relative stereo) [Example 75, 5-Cyano-pyridine-2-carboxylic acid [3-((3R*,6R*)-5-amino-3-difluoromethyl-6-methyl-3,6-dihydro-2H-[1,4]oxazin-3-yl)-4-fluoro-phenyl]-amide hydrochloride]
175 nM	C[C@@H]1OC[C@](c2cc(NC(=O)c3ccc(C#N)cn3)ccc2F)(C(F)F)N=C1N (relative stereo) [Example 76, 5-Cyano-pyridine-2-carboxylic acid [3-((3R*,6S*)-5-amino-3-difluoromethyl-6-methyl-3,6-dihydro-2H-[1,4]oxazin-3-yl)-4-fluoro-phenyl]-amide hydrochloride]
42 nM	C[C@H]1OC[C@](c2cc(NC(=O)c3ccc(Br)cn3)ccc2F)(C(F)F)N=C1N (relative stereo) [Example 77, 5-Bromo-pyridine-2-carboxylic acid [3-((3R*,6R*)-5-amino-3-difluoromethyl-6-methyl-3,6-dihydro-2H-[1,4]oxazin-3-yl)-4-fluoro-phenyl]-amide hydrochloride]
22 nM	C[C@@H]1OC[C@](c2cc(NC(=O)c3ccc(Br)cn3)ccc2F)(C(F)F)N=C1N (relative stereo) [Example 78, 5-Bromo-pyridine-2-carboxylic acid [3-((3R*,6S*)-5-amino-3-difluoromethyl-6-methyl-3,6-dihydro-2H-[1,4]oxazin-3-yl)-4-fluoro-phenyl]-amide hydrochloride]
116 nM	Cc1cc(OC(F)F)cnc1C(=O)Nc1ccc(F)c([C@]2(C(F)F)CNCC(N)=N2)c1 (single isomer, unassigned) [Example 212]
115 nM	COc1cnc(C(=O)Nc2ccc(F)c([C@]3(C(F)F)CNCC(N)=N3)c2)c(N)n1 (single isomer, unassigned) [Example 213]
33 nM	Cc1cc(C#N)cnc1C(=O)Nc1ccc(F)c([C@]2(C)COC(CF)(CF)C(N)=N2)c1 (single isomer, unassigned) [Example 252]
61 nM	CC1(c2cccc(NC(=O)c3ccco3)c2)COCC(N)=N1 (centres unmarked) [Example 1, Furan-2-carboxylic acid [3-(5-amino-3-methyl-3,6-dihydro-2H-[1,4]oxazin-3-yl)-phenyl]-amide hydrochloride]
87 nM	CC1(c2cccc(NC(=O)c3ccc(Br)cn3)c2)COCC(N)=N1 (centres unmarked) [Example 2, 5-Bromo-pyridine-2-carboxylic acid [3-(5-amino-3-methyl-3,6-dihydro-2H-[1,4]oxazin-3-yl)-phenyl]-amide hydrochloride]
56 nM	C[C@@]1(c2cccc(NC(=O)c3ccc(Br)cn3)c2)COCC(N)=N1 [Example 3, 5-Bromo-pyridine-2-carboxylic acid [3-((R)-5-amino-3-methyl-3,6-dihydro-2H-[1,4]oxazin-3-yl)-phenyl]-amide hydrochloride]
> 10000 nM	C[C@]1(c2cccc(NC(=O)c3ccc(Br)cn3)c2)COCC(N)=N1 [Example 4, 5-Bromo-pyridine-2-carboxylic acid [3-((S)-5-amino-3-methyl-3,6-dihydro-2H-[1,4]oxazin-3-yl)-phenyl]-amide hydrochloride]
373 nM	Cc1nc(C(=O)Nc2cccc(C3(C)COCC(N)=N3)c2)co1 (centres unmarked) [Example 5, 2-Methyl-oxazole-4-carboxylic acid [3-(5-amino-3-methyl-3,6-dihydro-2H-[1,4]oxazin-3-yl)-phenyl]-amide hydrochloride]

IC50	Compound
3440 nM	Cc1cnc(C(=O)Nc2cccc(C3(C)COCC(N)=N3)c2)cn1 (centres unmarked) [Example 6, 5-Methyl-pyrazine-2-carboxylic acid [3-(5-amino-3-methyl-3,6-dihydro-2H-[1,4]oxazin-3-yl)-phenyl]-amide hydrochloride]
309 nM	CC1(c2cccc(NC(=O)c3ncc(Br)cn3)c2)COCC(N)=N1 (centres unmarked) [Example 7, 5-Bromo-pyrimidine-2-carboxylic acid [3-(5-amino-3-methyl-3,6-dihydro-2H-[1,4]oxazin-3-yl)-phenyl]-amide hydrochloride]
7230 nM	CC1(c2cccc(NC(=O)c3cn4ccccc4n3)c2)COCC(N)=N1 (centres unmarked) [Example 8, Imidazo[1,2-a]pyridine-2-carboxylic acid [3-(5-amino-3-methyl-3,6-dihydro-2H-[1,4]oxazin-3-yl)-phenyl]-amide hydrochloride]
663 nM	CC1(c2cccc(NC(=O)c3ncccc3F)c2)COCC(N)=N1 (centres unmarked) [Example 9, 3-Fluoro-pyridine-2-carboxylic acid [3-(5-amino-3-methyl-3,6-dihydro-2H-[1,4]oxazin-3-yl)-phenyl]-amide hydrochloride]
289 nM	Cc1nc(C(=O)Nc2cccc(C3(C)COCC(N)=N3)c2)c(C)o1 (centres unmarked) [Example 10, 2,5-Dimethyl-oxazole-4-carboxylic acid [3-(5-amino-3-methyl-3,6-dihydro-2H-[1,4]oxazin-3-yl)-phenyl]-amide hydrochloride]
1060 nM	Cc1nc(C(=O)Nc2cccc(C3(C)COCC(N)=N3)c2)cs1 (centres unmarked) [Example 11, 2-Methyl-thiazole-4-carboxylic acid [3-(5-amino-3-methyl-3,6-dihydro-2H-[1,4]oxazin-3-yl)-phenyl]-amide hydrochloride]
2260 nM	CC1(c2cccc(NC(=O)c3ccc(O)nn3)c2)COCC(N)=N1 (centres unmarked) [Example 12, 6-Hydroxy-pyridazine-3-carboxylic acid [3-(5-amino-3-methyl-3,6-dihydro-2H-[1,4]oxazin-3-yl)-phenyl]-amide hydrochloride]
431 nM	CC1(c2cccc(NC(=O)c3ccccn3)c2)COCC(N)=N1 (centres unmarked) [Example 13, Pyridine-2-carboxylic acid [3-(5-amino-3-methyl-3,6-dihydro-2H-[1,4]oxazin-3-yl)-phenyl]-amide hydrochloride]
335 nM	CC1(c2cccc(NC(=O)c3ccc(C#N)cn3)c2)COCC(N)=N1 (centres unmarked) [Example 14, 5-Cyano-pyridine-2-carboxylic acid [3-(5-amino-3-methyl-3,6-dihydro-2H-[1,4]oxazin-3-yl)-phenyl]-amide hydrochloride]
6590 nM	CC1(c2cccc(NC(=O)c3cnc(-n4ccc(C(F)(F)F)n4)cn3)c2)COCC(N)=N1 (centres unmarked) [Example 15, 5-(3-Trifluoromethyl-pyrazol-1-yl)-pyrazine-2-carboxylic acid [3-(5-amino-3-methyl-3,6-dihydro-2H-[1,4]oxazin-3-yl)-phenyl]-amide hydrochloride]
694 nM	CC1(c2cccc(NC(=O)c3ncc(C(F)(F)F)cc3Cl)c2)COCC(N)=N1 (centres unmarked) [Example 17, 3-Chloro-5-trifluoromethyl-pyridine-2-carboxylic acid [3-(5-amino-3-methyl-3,6-dihydro-2H-[1,4]oxazin-3-yl)-phenyl]-amide hydrochloride]
1660 nM	COc1cnc(C(=O)Nc2cccc(C3(C)COCC(N)=N3)c2)cn1 (centres unmarked) [Example 18, 5-Methoxy-pyrazine-2-carboxylic acid [3-(5-amino-3-methyl-3,6-dihydro-2H-[1,4]oxazin-3-yl)-phenyl]-amide hydrochloride]
3180 nM	CC1(c2cccc(NC(=O)c3cnc(O)cn3)c2)COCC(N)=N1 (centres unmarked) [Example 19]
226 nM	CC1(c2cccc(NC(=O)c3cc(Br)co3)c2)COCC(N)=N1 (centres unmarked) [Example 20, 4-Bromo-furan-2-carboxylic acid [3-(5-amino-3-methyl-3,6-dihydro-2H-[1,4]oxazin-3-yl)-phenyl]-amide hydrochloride]
1500 nM	CC1(c2cccc(NC(=O)c3ccc(C(F)(F)F)cn3)c2)COCC(N)=N1 (centres unmarked) [Example 22, 5-Trifluoromethyl-pyridine-2-carboxylic acid [3-(5-amino-3-methyl-3,6-dihydro-2H-[1,4]oxazin-3-yl)-phenyl]-amide hydrochloride]

Compound	IC50
5-Bromo-pyridine-2-carboxylic acid[3-((S)-3-amino-5-difluoromethyl-2,5,6,7-tetrahydro-[1,4]oxazepin-5-yl)-4-fluoro-phenyl]-amide hydrochloride [Example 96]	44 nM
